# Assay results: patent publication US20080233151A1, “Use of non-antibacterial tetracycline analogs and formulations thereof for the treatment of bacterial exotoxins” (priority 2002, published 2008)
# System: bacteria
# Assay: Non-antimicrobial dose and plasma antimicrobial threshold of antibacterial tetracyclines
# Protocol: For example, tetracycline compounds that have significant antibacterial activity may be administered in an amount which is 10-80% of the antibacterial amount. More preferably, the antibacterial tetracycline compound is administered in an amount which is 40-70% of the antibacterial amount.
# Examples of antibacterial tetracyclines administered in a non-antibacterial amount are depicted in Table 1, as follows: […]
SMILES,Plasma Antimicrobial Threshold Level [µg/mL],Maximum Non-Antimicrobial Dose (twice daily) [mg b.i.d],Maximum Non-Antimicrobial Dose (once daily) [mg q.d.]
C[C@H]1c2cccc(O)c2C(=O)C2=C(O)[C@]3(O)C(=O)C(C(N)=O)=C(O)[C@@H](N(C)C)[C@@H]3[C@@H](O)[C@@H]21 [Doxycycline],1.0,20,
CN(C)c1ccc(O)c2c1C[C@H]1C[C@H]3[C@H](N(C)C)C(O)=C(C(N)=O)C(=O)[C@@]3(O)C(O)=C1C2=O [Minocycline],0.8,,38
CN(C)[C@@H]1C(O)=C(C(N)=O)C(=O)[C@@]2(O)C(O)=C3C(=O)c4c(O)cccc4[C@@](C)(O)[C@H]3C[C@@H]12 [Tetracycline],0.5,,60
